# Laboratory results taken from ChEMBL document CHEMBL6177930, “2-(4-Bromobenzyl) tethered 4-amino aryl/alkyl-5,6,7,8-tetrahydrobenzo[4,5]thieno[2,3-d]pyrimidines: design, synthesis, anticancer assessment via dual topoisomerase-I/II inhibition, and in silico studies” (RSC Med Chem, 2025).
# Calls of active or inactive are those of the source. The rule behind the calls is not given here.
# Columns and labels:
# FaDu [1] = assay: Inhibition of cell migration in human FaDu cells assessed as reduction in wound closure at 5 uM measured after 48 hrs by bright field microscopic analysis; type: functional, cell-based
# [2] = molecular target: T1, Prostaglandin G/H synthase 2 (Homo sapiens) (UniProt P35354); assay: Inhibition of human recombinant COX-2 at 10 uM relative to control
# T1 sequence (whole entry): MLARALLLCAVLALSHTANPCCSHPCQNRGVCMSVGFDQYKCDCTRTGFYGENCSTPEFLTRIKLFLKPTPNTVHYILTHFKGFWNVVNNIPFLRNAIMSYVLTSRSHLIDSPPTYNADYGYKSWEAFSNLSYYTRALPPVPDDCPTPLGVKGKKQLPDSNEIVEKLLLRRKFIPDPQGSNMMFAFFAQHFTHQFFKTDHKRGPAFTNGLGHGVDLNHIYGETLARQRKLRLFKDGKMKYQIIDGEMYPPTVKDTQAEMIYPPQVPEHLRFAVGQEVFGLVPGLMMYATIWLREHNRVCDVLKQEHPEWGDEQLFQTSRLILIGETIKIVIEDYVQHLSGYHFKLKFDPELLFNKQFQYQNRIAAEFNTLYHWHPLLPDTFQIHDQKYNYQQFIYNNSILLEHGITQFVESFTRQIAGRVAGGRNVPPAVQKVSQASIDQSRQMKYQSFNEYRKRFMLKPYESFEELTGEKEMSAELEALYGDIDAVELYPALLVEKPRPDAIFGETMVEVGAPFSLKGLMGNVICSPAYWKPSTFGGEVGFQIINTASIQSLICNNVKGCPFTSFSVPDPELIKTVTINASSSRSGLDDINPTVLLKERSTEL
# FaDu [3] = assay: Induction of morphological changes in human FaDu cells assessed as reduction in cell density at 2 to 5 uM incubated for 48 hrs by bright field microscope based analysis; type: functional; details: dose 2-5 µM
# [4] = molecular target: DNA topoisomerase 2-alpha (Homo sapiens) (UniProt P11388); assay: Inhibition of human topoisomerase-II alpha assessed as reduction in decatenation activity using kinetoplast DNA as substrate incubated for 30 mins by EtBr staining based agarose gel electrophoresis method
# FaDu [5] = assay: Antiproliferative activity against human FaDu cells assessed as inhibition of cell growth measured after 48 hrs by MTT assay; type: functional, cell-based
# [6] = molecular target: T2, DNA topoisomerase 1 (Homo sapiens) (UniProt P11387); assay: Inhibition of human topoisomerase-I extracted from baculovirus expression system using SC-DNA as substrate incubated for 30 mins by EtBr staining based agarose gel electrophoresis method
# T2 sequence (whole entry): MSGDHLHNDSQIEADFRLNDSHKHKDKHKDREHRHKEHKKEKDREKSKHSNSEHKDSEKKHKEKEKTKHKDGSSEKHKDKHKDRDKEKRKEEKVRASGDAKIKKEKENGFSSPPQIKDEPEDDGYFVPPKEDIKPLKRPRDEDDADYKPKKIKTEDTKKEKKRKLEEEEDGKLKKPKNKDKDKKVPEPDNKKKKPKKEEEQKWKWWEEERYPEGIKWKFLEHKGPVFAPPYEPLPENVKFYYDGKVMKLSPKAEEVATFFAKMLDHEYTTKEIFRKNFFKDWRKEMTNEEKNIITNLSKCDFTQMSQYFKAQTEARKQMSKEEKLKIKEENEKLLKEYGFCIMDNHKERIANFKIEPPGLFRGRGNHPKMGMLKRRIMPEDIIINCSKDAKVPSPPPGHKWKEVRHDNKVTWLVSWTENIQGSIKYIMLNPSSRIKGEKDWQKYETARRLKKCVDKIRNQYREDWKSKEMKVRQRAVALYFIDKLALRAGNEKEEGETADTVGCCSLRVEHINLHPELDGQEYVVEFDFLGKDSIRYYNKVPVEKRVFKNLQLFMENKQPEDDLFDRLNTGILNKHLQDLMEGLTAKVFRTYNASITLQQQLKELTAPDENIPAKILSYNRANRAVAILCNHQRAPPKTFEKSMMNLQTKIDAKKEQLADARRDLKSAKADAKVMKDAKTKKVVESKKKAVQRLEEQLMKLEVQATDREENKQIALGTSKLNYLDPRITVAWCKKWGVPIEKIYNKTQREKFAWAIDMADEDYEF
# FaDu [7] = assay: Induction of morphological changes in human FaDu cells assessed as appearance of rounded cells at 2 to 5 uM incubated for 48 hrs by bright field microscope based analysis; type: functional, cell-based; details: dose 2-5 µM
# FaDu [8] = assay: Induction of apoptosis in human FaDu cells assessed as chromatin condensation at 1 to 5 uM by DAPI staining based analysis; type: functional, cell-based; details: dose 1-5 µM
# A549 = assay: Antiproliferative activity against human A549 cells assessed as inhibition of cell growth at 10 uM measured after 48 to 72 hrs by MTT assay relative to control; type: functional; details: time 48-72 hrs
# MCF7 = assay: Induction of cell cycle arrest in human MCF7 cells assessed as accumulation of cells at G0/G1 phase measured after 24 hrs by PI staining based flow cytometry analysis (reference value: 45.2%); type: functional
# FaDu [9] = assay: Induction of apoptosis in human FaDu cells assessed as nuclear fragmentation at 1 to 5 uM by DAPI staining based analysis; type: functional, cell-based; details: dose 1-5 µM
# FaDu [10] = assay: Antiproliferative activity against human FaDu cells assessed as inhibition of cell growth at 10 uM measured after 48 to 72 hrs by MTT assay relative to control; type: functional; details: time 48-72 hrs
# FaDu [11] = assay: Induction of morphological changes in human FaDu cells assessed as cell membrane blebbing at 2 to 5 uM incubated for 48 hrs by bright field microscope based analysis; type: functional; details: dose 2-5 µM
# HEK293 = assay: Antiproliferative activity against HEK293 cells assessed as inhibition of cell growth at 10 to 25 uM measured after 48 to 72 hrs by MTT assay; type: toxicity, cell-based; details: human, hek293, 25 µM; dose lower 10 µM, time lower 48 hrs, dose upper 25 µM, time upper 72 hrs
# FaDu [12] = assay: Inhibition of colony formation in human FaDu cells assessed as reduction in colony formation incubated for 48 hrs crystal violet staining based analysis; type: functional, cell-based; details: dose 1-5 µM
# [13] = Antiproliferative activity against human HCC cells assessed as inhibition of cell growth at 10 uM measured after 48 to 72 hrs by MTT assay relative to control; type: functional; details: time 48-72 hrs
# FaDu [14] = assay: Inhibition of colony formation in human FaDu cells assessed as reduction in colony formation at 1 to 5 uM incubated for 48 hrs crystal violet staining based analysis (reference value: 62.58%); type: functional; details: dose 1-5 µM
# FaDu [15] = assay: Inhibition of cell migration in human FaDu cells assessed as reduction in wound closure at 1 uM measured after 48 hrs by bright field microscopic analysis relative to control; type: functional
# FaDu [16] = assay: Inhibition of cell migration in human FaDu cells assessed as reduction in wound closure at 5 uM measured after 48 hrs by bright field microscopic analysis relative to control; type: functional
# T47D = assay: Antiproliferative activity against human T47D cells assessed as inhibition of cell growth at 10 uM measured after 48 to 72 hrs by MTT assay relative to control; type: functional; details: time 48-72 hrs
# FaDu [17] = assay: Induction of morphological changes in human FaDu cells assessed as appearance of detached cells at 2 to 5 uM incubated for 48 hrs by bright field microscope based analysis; type: functional, cell-based; details: dose 2-5 µM
# FaDu [18] = assay: Induction of autophagy in human FaDu cells assessed as reduction in cell density at 1 to 5 uM measured after 48 hrs by acridine orange staining based fluorescence microscopy analysis; type: functional; details: dose 1-5 µM
# DNA topoisomerase 2-alpha (Homo sapiens), sequence (P11388 whole entry): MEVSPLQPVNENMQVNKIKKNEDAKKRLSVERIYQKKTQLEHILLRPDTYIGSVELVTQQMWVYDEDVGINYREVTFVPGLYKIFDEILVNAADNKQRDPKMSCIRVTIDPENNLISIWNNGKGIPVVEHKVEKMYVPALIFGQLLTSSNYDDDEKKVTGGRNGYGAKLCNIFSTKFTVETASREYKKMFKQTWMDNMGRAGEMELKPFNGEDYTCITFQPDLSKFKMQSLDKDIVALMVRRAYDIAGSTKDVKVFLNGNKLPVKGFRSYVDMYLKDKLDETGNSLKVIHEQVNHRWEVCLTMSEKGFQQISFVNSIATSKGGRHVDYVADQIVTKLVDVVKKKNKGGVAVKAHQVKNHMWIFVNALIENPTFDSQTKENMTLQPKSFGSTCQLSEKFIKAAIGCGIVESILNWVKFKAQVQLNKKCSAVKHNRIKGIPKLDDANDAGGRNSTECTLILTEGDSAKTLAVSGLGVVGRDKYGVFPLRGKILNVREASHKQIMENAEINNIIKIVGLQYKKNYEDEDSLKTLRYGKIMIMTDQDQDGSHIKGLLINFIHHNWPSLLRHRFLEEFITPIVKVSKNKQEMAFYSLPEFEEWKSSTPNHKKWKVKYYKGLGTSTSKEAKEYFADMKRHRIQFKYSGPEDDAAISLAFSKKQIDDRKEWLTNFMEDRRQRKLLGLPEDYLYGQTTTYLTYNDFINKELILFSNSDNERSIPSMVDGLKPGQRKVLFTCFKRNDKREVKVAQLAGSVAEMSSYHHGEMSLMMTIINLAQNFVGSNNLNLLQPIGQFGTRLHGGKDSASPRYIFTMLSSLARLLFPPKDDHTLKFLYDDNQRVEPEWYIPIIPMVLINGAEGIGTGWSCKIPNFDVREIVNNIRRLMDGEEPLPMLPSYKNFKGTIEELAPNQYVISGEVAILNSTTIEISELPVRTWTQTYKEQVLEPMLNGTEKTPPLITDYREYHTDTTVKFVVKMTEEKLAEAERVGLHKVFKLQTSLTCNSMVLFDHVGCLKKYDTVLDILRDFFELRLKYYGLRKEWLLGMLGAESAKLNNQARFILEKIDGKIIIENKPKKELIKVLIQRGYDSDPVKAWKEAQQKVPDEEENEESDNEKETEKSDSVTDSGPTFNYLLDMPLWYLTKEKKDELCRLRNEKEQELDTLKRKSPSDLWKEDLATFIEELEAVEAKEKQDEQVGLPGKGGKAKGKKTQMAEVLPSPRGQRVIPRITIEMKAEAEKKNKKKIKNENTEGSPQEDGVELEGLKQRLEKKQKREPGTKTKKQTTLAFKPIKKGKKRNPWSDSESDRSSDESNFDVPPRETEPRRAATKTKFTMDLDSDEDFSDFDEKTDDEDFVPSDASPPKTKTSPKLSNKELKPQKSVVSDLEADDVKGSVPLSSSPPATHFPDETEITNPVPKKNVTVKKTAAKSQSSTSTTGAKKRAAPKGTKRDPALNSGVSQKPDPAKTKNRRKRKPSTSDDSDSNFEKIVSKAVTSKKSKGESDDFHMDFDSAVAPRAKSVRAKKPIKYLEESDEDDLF
structure (smiles),measurement,setting,value
Brc1ccc(Cc2nc(N3CCN(c4ccncc4)CC3)c3c4c(sc3n2)CCCC4)cc1,inhibition,FaDu [1],Active
same,inhibition,[2],75.7%
same,Activity,FaDu [3],Active
same,inhibition,[4],Active; Compound Showed Higher Inhibition Activity Than Etoposide
same,IC50,FaDu [5],3.06 µM
same,Activity,FaDu [5]; dose 0.5-50 µM,Dose-dependent-effect
same,inhibition,[6],Active; Compound Showed Potent Inhibition Activity Than Camptothecin
same,Activity,FaDu [7],Active
same,Activity,FaDu [8],Active
same,inhibition at 10 µM,A549,39.2%
same,Activity,MCF7,20.2%
same,Activity,FaDu [9],Active
same,inhibition at 10 µM,FaDu [10],83.5%
same,Activity,FaDu [11],Active
same,Activity,HEK293,Non-toxic
same,inhibition,FaDu [12],Dose-dependent-effect
same,inhibition at 10 µM,[13],2.28%
same,inhibition (INH),FaDu [14],19.35%
same,inhibition at 1 µM,FaDu [15],64.7%
same,inhibition at 5 µM,FaDu [16],24.4%
same,inhibition at 10 µM,T47D,83.4%
same,Activity,FaDu [17],Active
same,Activity,FaDu [18],Active
